# Data as given in paper PMC2883612 (Journal of nuclear medicine : official publication, Society …, 2009).
# How the values were obtained:
# [1] = Pharmacologic effects and safety tests in human subjects after PET; type: in vivo
# [2] = Plasma metabolite analysis and plasma input function; type: in vivo; conditions: human; for metabolites in plasma radioactivity: 30 min after injection; for plasma clearance time constant: monoexponential fitting from 20 to 60 min
# [3] = cited from earlier work
# TSPO [4] = conditions: rat model of neurodegeneration; cited from earlier work
# TSPO [5] = conditions: in vivo; cited from earlier work
# TSPO [6] = molecular target: TSPO (Homo sapiens, UniProt P30536); experiment: Brain PET with arterial input, compartmental modeling; conditions: 1-tissue model, mean ± SD
# Sequence of TSPO (Homo sapiens, UniProt P30536) (P30536 whole entry): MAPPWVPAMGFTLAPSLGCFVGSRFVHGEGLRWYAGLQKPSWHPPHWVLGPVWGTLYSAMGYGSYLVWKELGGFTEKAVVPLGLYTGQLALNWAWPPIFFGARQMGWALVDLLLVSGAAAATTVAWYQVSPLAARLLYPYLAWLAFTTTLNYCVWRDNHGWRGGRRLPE
smiles,measurement,setting,value
"CCN(CC)C(=O)Cc1c(-c2ccc(OC)cc2)nn2c(C)cc(C)nc12 [^11C-DPA-713, ^11C-N,N-diethyl-2-[2-(4-methoxyphenyl)-5,7-dimethyl-pyrazolo[1,5-a]pyrimidin-3-yl]-acetamide]",blood tests before and after the scan,[1]; healthy human subjects,no abnormalities or interval changes
same,side effects after the PET scans,[1]; healthy human subjects,No side effects were reported
same,pharmacologic effects,"[1]; healthy human subjects, intravenous bolus",No pharmacologic effects were noted
same,12-lead ECGs,[1]; within 1 wk before and after injection,no abnormalities or interval changes
same,metabolites in plasma radioactivity,[2],20%
same,plasma clearance time constant,[2],42 min
same,logP,[3],2.4
same,"specificity in discriminating between normal and lesioned brain, vs ^11C-R-PK11195",TSPO [4],greater specificity
CCC(C)N(C)C(=O)c1cc2ccccc2c(-c2ccccc2Cl)n1 (stereo not shown) [^11C-R-PK11195],metabolites in plasma radioactivity,[2],40%
same,plasma clearance time constant,[2],37 min
same,blocking effect on ^11C-DPA-713 brain uptake,TSPO [5],potent blockade of brain uptake
same,K1 value,TSPO [6]; Caudate,0.020 ± 0.012 (24.9)
same,VT value,TSPO [6]; Caudate,0.25 ± 0.09 (23.1)
same,K1 value,TSPO [6]; Cerebellar cortex,0.025 ± 0.016 (12.5)
same,VT value,TSPO [6]; Cerebellar cortex,0.32 ± 0.08 (11.9)
same,K1 value,TSPO [6]; Frontal,0.023 ± 0.013 (14.6)
same,VT value,TSPO [6]; Frontal,0.33 ± 0.10 (13.9)
same,K1 value,TSPO [6]; Pons,0.019 ± 0.016 (23.1)
same,VT value,TSPO [6]; Pons,0.42 ± 0.13 (33.3)
same,K1 value,TSPO [6]; Putamen,0.026 ± 0.015 (10.3)
same,VT value,TSPO [6]; Putamen,0.34 ± 0.06 (9.5)
same,K1 value,TSPO [6]; Temporal,0.016 ± 0.011 (22.0)
same,VT value,TSPO [6]; Temporal,0.40 ± 0.08 (29.4)
same,K1 value,TSPO [6]; Thalamus,0.025 ± 0.013 (12.0)
same,VT value,TSPO [6]; Thalamus,0.42 ± 0.07 (11.9)
